Assay results reported in patent US8697739B2, “Bicyclic acetyl-CoA carboxylase inhibitors and uses thereof” (Novartis AG, priority 2010, dated 2014).

Target: T1, human acetyl-CoA carboxylase 2 (ACC2) (Homo sapiens, UniProt O00763)
T1 construct: The cDNA encoding amino acids 144 to 2458 of human acetyl-CoA carboxylase 2; made in house; host or cells: Sf9 insect cells (baculovirus, pFastBac1)
Experiment: Acetyl-CoA carboxylase enzyme assay (malonyl-CoA formation by LC/MS/MS)
Type: biochemical
Settings: recombinant human ACC2 (aa 144-2458); read-out: IC50 ACC2
Method in brief: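 Malonyl-CoA formation was read by LC/MS/MS MRM against a [13C3]-malonyl-CoA internal standard, after acetic acid quench. The enzyme was baculovirus/Sf9-expressed human ACC2 residues 144–2458, given 15 minutes room-temperature compound preincubation in HEPES pH 7.5 buffer with MgCl2, citrate and DTT. Substrate solution held 50 μM acetyl-CoA, 120 μM ATP and 2 mM KHCO3.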

T1 sequence (O00763 144-2458): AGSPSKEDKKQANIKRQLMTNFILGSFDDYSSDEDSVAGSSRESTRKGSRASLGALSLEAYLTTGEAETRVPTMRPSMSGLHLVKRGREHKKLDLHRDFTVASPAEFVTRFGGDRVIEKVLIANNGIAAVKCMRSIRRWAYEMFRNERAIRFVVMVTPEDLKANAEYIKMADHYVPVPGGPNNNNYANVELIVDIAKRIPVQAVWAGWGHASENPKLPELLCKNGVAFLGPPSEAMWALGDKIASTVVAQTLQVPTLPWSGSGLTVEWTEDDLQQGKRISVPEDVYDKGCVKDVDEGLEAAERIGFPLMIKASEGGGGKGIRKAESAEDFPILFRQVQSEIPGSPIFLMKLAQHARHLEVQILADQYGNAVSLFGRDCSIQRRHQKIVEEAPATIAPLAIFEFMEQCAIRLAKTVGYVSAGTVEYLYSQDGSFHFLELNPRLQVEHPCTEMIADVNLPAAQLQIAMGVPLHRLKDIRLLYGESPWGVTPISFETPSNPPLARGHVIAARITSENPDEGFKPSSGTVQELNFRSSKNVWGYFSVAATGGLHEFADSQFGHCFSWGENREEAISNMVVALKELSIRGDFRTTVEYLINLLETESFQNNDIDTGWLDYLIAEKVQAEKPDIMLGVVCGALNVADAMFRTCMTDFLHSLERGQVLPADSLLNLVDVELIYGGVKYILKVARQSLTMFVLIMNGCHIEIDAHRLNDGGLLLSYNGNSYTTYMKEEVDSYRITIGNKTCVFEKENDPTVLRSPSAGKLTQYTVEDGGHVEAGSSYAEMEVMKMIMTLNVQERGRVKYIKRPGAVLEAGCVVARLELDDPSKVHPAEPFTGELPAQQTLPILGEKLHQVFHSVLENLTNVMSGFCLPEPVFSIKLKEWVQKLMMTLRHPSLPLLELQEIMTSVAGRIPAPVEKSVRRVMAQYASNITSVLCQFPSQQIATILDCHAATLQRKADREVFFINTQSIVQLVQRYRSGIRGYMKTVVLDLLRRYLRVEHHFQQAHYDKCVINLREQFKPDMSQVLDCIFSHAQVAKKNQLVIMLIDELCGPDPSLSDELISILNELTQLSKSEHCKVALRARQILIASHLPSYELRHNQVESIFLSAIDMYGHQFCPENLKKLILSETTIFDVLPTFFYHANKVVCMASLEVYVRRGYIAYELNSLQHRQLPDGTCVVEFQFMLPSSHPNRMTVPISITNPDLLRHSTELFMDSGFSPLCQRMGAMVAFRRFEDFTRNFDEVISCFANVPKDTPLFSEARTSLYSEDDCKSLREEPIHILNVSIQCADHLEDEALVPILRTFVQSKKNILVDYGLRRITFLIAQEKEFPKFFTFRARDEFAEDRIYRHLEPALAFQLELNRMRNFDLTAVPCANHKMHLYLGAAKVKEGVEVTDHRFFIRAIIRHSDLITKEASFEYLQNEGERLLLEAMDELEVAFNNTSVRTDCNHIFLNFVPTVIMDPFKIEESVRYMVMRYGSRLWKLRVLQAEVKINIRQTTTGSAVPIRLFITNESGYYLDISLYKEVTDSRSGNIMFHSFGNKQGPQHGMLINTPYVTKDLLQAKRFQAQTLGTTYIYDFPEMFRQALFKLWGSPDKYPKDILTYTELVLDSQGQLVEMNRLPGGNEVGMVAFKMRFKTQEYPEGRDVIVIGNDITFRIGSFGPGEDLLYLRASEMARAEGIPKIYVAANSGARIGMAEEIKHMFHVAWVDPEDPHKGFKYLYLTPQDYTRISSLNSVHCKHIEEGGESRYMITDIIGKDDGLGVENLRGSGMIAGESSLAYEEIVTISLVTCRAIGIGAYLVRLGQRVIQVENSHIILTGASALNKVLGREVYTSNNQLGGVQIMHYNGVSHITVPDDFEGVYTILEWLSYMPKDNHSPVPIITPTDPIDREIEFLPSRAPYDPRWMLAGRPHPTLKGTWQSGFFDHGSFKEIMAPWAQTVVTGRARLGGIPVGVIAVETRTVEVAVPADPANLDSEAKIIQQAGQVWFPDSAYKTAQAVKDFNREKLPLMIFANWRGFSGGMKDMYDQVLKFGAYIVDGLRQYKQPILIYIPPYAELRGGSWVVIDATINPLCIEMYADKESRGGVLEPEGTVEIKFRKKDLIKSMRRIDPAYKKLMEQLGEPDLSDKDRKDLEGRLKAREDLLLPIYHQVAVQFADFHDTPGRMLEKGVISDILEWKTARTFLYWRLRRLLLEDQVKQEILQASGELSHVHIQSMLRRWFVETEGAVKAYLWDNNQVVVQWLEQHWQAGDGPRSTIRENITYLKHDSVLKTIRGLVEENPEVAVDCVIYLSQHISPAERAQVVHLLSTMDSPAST

Point of comparison: `CCOc1ccc2cc(S(=O)(=O)N[C@H]3CC[C@H](C(=O)N4CCNCC4c4ccccc4)CC3)ccc2n1` (stereo partly shown) [Example 204, 2-ethoxy-N-((1r,4r)-4-(2-phenylpiperazine-1-carbonyl)cyclohexyl)quinoline-6-sulfonamide], IC50 80 nM. Against it:
- COCCNC(=O)[C@H]1CC[C@H](NS(=O)(=O)c2ccc3[nH]c(-c4ccccc4)nc3c2)CC1 [Example 634, (1r,4r)-N-(2-methoxyethyl)-4-(2-phenyl-1H-benzo[d]imidazole-5-sulfonamido)cyclohexanecarboxamide] — 21-fold higher, 1680 nM
- Cn1c(C2CC2)c(Cl)c2ccc(S(=O)(=O)N[C@H]3CC[C@H](C(=O)N4CCOCC4)CC3)cc21 [Example 363, 3-chloro-2-cyclopropyl-1-methyl-N-((1r,4r)-4-(morpholine-4-carbonyl)cyclohexyl)-1H-indole-6-sulfonamide] — 1.5-fold higher, 120 nM
- CC(C)(C)c1nnc([C@H]2CC[C@H](NS(=O)(=O)c3ccc4[nH]c(-c5ccc(N6CCNCC6)cc5)nc4c3)CC2)o1 [Example 655, N-((1r,4r)-4-(5-tert-butyl-1,3,4-oxadiazol-2-yl)cyclohexyl)-2-(4-(piperazin-1-yl)phenyl)-1H-benzo[d]imidazole-5-sulfonamide] — 1.8-fold higher, 141 nM
- CC(C)c1nnc([C@H]2CC[C@H](NS(=O)(=O)c3ccc4[nH]c(-c5ccc(N6CCOCC6)cc5)nc4c3)CC2)o1 [Example 589, N-((1r,4r)-4-(5-isopropyl-1,3,4-oxadiazol-2-yl)cyclohexyl)-2-(4-morpholinophenyl)-1H-benzo[d]imidazole-5-sulfonamide] — 6.5-fold higher, 516 nM
- C[C@@H]1CCCN1C(=O)[C@H]1CC[C@H](NS(=O)(=O)c2ccc3[nH]c(-c4ccccc4)nc3c2)CC1 [Example 125, N-((1R,4r)-4-((R)-2-methylpyrrolidine-1-carbonyl)cyclohexyl)-2-phenyl-1H-benzo[d]imidole-5-sulfonamide] — within 1.5-fold, 58 nM
- C[C@@H](NC(=O)[C@H]1CC[C@H](NS(=O)(=O)c2ccc3c(c2)cc(-c2ccccc2)n3C)CC1)c1ccc(F)cc1 [Example 14, (1r,4R)—N—((R)-1-(4-fluorophenyl)ethyl)-4-(1-methyl-2-phenyl-1H-indole-5-sulfonamido)cyclohexanecarboxamide] — 8-fold lower, 10 nM
- CCNC(=O)N1CCNc2ccc(S(=O)(=O)N[C@H]3CC[C@H](C(=O)N[C@H](C)c4ccc(F)cc4)CC3)cc21 [Example 239, N-ethyl-7-(N-((1R,4r)-4-((R)-1-(4-fluorophenyl)ethylcarbamoyl)cyclohexyl)sulfamoyl)-3,4-dihydroquinoxaline-1(2H)-carboxamide] — 1.6-fold higher, 130 nM
- C[C@@H](NC(=O)[C@H]1CC[C@H](NS(=O)(=O)c2ccc3cc(-c4ccccc4CO)[nH]c3c2)CC1)c1ccc(F)cc1 [Example 299, (1r,4R)-N-((R)-1-(4-fluorophenyl)ethyl)-4-(2-(2-(hydroxymethyl)phenyl)-1H-indole-6-sulfonamido)cyclohexanecarboxamide] — 7.3-fold lower, 11 nM
- C[C@@H](NC(=O)[C@H]1CC[C@H](NS(=O)(=O)c2ccc3nc(-c4cccc(C(=O)O)c4)ccc3c2)CC1)c1ccc(F)cc1 [Example 249, 3-(6-(N-((1R,4r)-4-((R)-1-(4-fluorophenyl)ethylcarbamoyl)cyclohexyl)sulfamoyl)quinolin-2-yl)benzoic acid] — 8-fold lower, 10 nM
- Cc1ccccc1-c1nc2cc(S(=O)(=O)N[C@H]3CC[C@H](C(=O)N[C@H](C)c4ccc(F)cc4)CC3)cnc2o1 [Example 76, (1r,4R)-N-((R)-1-(4-fluorophenyl)ethyl)-4-(2-o-tolyloxazolo[5,4-b]pyridine-6-sulfonamido)cyclohexanecarboxamide] — 7.4-fold higher, 590 nM
- COc1cc(Nc2nc3cc(S(=O)(=O)Nc4ccc(C(=O)OC(C)C)cc4)ccc3[nH]2)cc(OC)c1 [Example 530, isopropyl 4-(2-(3,5-dimethoxyphenylamino)-1H-benzo[d]imidazole-5-sulfonamido)benzoate] — 7.7-fold higher, 612 nM
- CC(C)N1CCNc2ncc(S(=O)(=O)N[C@H]3CC[C@H](C(=O)N[C@H](C)c4ccc(F)cc4)CC3)cc21 [Example 141, (1r,4R)-N-((R)-1-(4-fluorophenyl)ethyl)-4-(1-isopropyl-1,2,3,4-tetrahydropyrido[3,2-b]pyrazine-7-sulfonamido)cyclohexanecarboxamide] — 7.2-fold higher, 579 nM
- CC(C)OC(=O)c1ccc(NS(=O)(=O)c2ccc3nc(-c4ccc(F)cc4)[nH]c3c2)cc1 [Example 499, isopropyl 4-(2-(4-fluorophenyl)-1H-benzo[d]imidazole-6-sulfonamido)benzoate] — 26-fold higher, 2110 nM
- CN1CCN(C(=O)[C@H]2CC[C@H](NS(=O)(=O)c3cnc4ccccc4c3)CC2)C(c2ccccc2)C1 (stereo partly shown) [Example 47, N-((1r,4r)-4-(4-methyl-2-phenylpiperazine-1-carbonyl)cyclohexyl)quinoline-3-sulfonamide] — 53-fold higher, 4220 nM
- Cn1c(-c2ccccc2)c(Cl)c2ccc(S(=O)(=O)N[C@H]3CC[C@H](C(=O)N4CCCC(C(C)(C)O)C4)CC3)cc21 (stereo partly shown) [Example 384, 3-chloro-N-((1r,4r)-4-(3-(2-hydroxypropan-2-yl)piperidine-1-carbonyl)cyclohexyl)-1-methyl-2-phenyl-1H-indole-6-sulfonamide] — lower, < 10 nM
- CC(=O)c1cccc(Nc2nc3cc(S(=O)(=O)Nc4ccc(C(=O)OC(C)C)cc4)ccc3[nH]2)c1 [Example 541, isopropyl 4-(2-(3-acetylphenylamino)-1H-benzo[d]imidazole-5-sulfonamido)benzoate] — within 1.5-fold, 86 nM
- N-(4-(5-isopropyl-1,3,4-oxadiazol-2-yl)phenyl)-2-(4-morpholinophenyl)-1H-benzo[d]imidazole-5-sulfonamide [Example 591] — 14-fold higher, 1130 nM
- CC1CCc2ccc(S(=O)(=O)N[C@H]3CC[C@H](C(=O)N[C@H](C)c4ccc(F)cc4)CC3)cc2N1 (stereo partly drawn) [Example 168, (1r,4R)-N-((R)-1-(4-fluorophenyl)ethyl)-4-(2-methyl-1,2,3,4-tetrahydroquinoline-7-sulfonamido)cyclohexanecarboxamide] — 2-fold lower, 40 nM
- Cc1ccccc1-c1cc2ccc(S(=O)(=O)N[C@H]3CC[C@H](C(=O)N4CCNC(C(F)(F)F)C4)CC3)cc2[nH]1 (stereo partly shown) [Example 320, 2-o-tolyl-N-((1r,4r)-4-(3-(trifluoromethyl)piperazine-1-carbonyl)cyclohexyl)-1H-indole-6-sulfonamide] — within 1.5-fold, 85 nM
- COC(=O)c1ccc(COC(=O)[C@H]2CC[C@H](NS(=O)(=O)c3ccc4nc(-c5ccccc5)[nH]c4c3)CC2)cc1 [Example 101, methyl 4-(((1r,4r)-4-(2-phenyl-1H-benzo[d]imidazole-6-sulfonamido)cyclohexanecarbonyloxy)methyl)benzoate] — 22-fold higher, 1790 nM
- CCOc1ccc2cc(S(=O)(=O)N[C@H]3CC[C@H](C(=O)N4CCNC[C@@H]4C(=O)OC)CC3)ccc2n1 [Example 236, (R)-methyl 1-((1r,4R)-4-(2-ethoxyquinoline-6-sulfonamido)cyclohexanecarbonyl)piperazine-2-carboxylate] — 4.8-fold higher, 385 nM
- COc1ccc(-c2cc3ccc(S(=O)(=O)N[C@H]4CC[C@H](C(=O)N[C@H](C)c5ccc(F)cc5)CC4)cc3[nH]2)c(C)c1 [Example 297, (1r,4R)-N-((R)-1-(4-fluorophenyl)ethyl)-4-(2-(4-methoxy-2-methylphenyl)-1H-indole-6-sulfonamido)cyclohexanecarboxamide] — 4.7-fold lower, 17 nM
- C[C@H](NC(=O)[C@H]1CC[C@H](NS(=O)(=O)c2ccc3ccccc3c2)CC1)c1cccnc1 [Example 683, (1r,4S)-4-(naphthalene-2-sulfonamido)-N-((S)-1-(pyridin-3-yl)ethyl)cyclohexanecarboxamide] — higher, > 35000 nM
- CCN(C)C(=O)[C@H]1CC[C@H](NS(=O)(=O)c2ccc3cc(-c4ccc(CCC(=O)OC)cc4)n(C)c3c2)CC1 [Example 364, methyl 3-(4-(6-(N-((1r,4r)-4-(ethyl(methyl)carbamoyl)cyclohexyl)sulfamoyl)-1-methyl-1H-indol-2-yl)phenyl)propanoate] — 1.8-fold higher, 140 nM
- Cc1c(Cl)[nH]c2ccc(S(=O)(=O)N[C@H]3CC[C@H](C(=O)N[C@H](C)c4ccc(F)cc4)CC3)cc12 [Example 124, (1r,4R)-4-(2-chloro-3-methyl-1H-indole-5-sulfonamido)-N-((R)-1-(4-fluorophenyl)ethyl)cyclohexanecarboxamide] — 2.5-fold lower, 32 nM
- CCCN(C)C(=O)[C@H]1CC[C@H](NS(=O)(=O)c2ccc3[nH]c(Nc4ccccc4)nc3c2)CC1 [Example 566, (1r,4r)-N-methyl-4-(2-(phenylamino)-1H-benzo[d]imidazole-5-sulfonamido)-N-propylcyclohexanecarboxamide] — within 1.5-fold, 118 nM
- CC(NC(=O)[C@H]1CC[C@H](NS(=O)(=O)c2ccc3[nH]c(-c4cccnc4)cc3c2)CC1)c1ccncc1 (stereo partly shown) [Example 283, (1r,4r)-4-(2-(pyridin-3-yl)-1H-indole-5-sulfonamido)-N-(1-(pyridin-4-yl)ethyl)cyclohexanecarboxamide] — 3.2-fold higher, 256 nM
- O=C(N[C@@H](c1ccccc1)C(F)(F)F)[C@H]1CC[C@H](NS(=O)(=O)c2ccc3[nH]c(-c4ccccc4)nc3c2)CC1 [Example 274, (1r,4S)-4-(2-phenyl-1H-benzo[d]imidazole-5-sulfonamido)-N-((S)-2,2,2-trifluoro-1-phenylethyl)cyclohexanecarboxamide] — 50-fold higher, 4030 nM
- CC(C)[C@@H](C)NC(=O)[C@H]1CC[C@H](NS(=O)(=O)c2ccc3[nH]c(-c4cccnc4)cc3c2)CC1 [Example 289, (1r,4R)-N-((R)-3-methylbutan-2-yl)-4-(2-(pyridin-3-yl)-1H-indole-5-sulfonamido)cyclohexanecarboxamide] — 2.9-fold higher, 234 nM
- C[C@@H](NC(=O)[C@H]1CC[C@H](NS(=O)(=O)c2ccc3c(c2)NC(=O)CC3(C)C)CC1)c1ccc(F)cc1 [Example 195, (1r,4R)-4-(4,4-dimethyl-2-oxo-1,2,3,4-tetrahydroquinoline-7-sulfonamido)-N-((R)-1-(4-fluorophenyl)ethyl)cyclohexanecarboxamide] — 4.2-fold higher, 335 nM
